The target in experiment [1] is T1, human recombinant aromatase (Homo sapiens, UniProt P11511).
T1 construct: purchased BD Biosciences (Heidelberg, Germany)
T1 sequence (P11511 1-503): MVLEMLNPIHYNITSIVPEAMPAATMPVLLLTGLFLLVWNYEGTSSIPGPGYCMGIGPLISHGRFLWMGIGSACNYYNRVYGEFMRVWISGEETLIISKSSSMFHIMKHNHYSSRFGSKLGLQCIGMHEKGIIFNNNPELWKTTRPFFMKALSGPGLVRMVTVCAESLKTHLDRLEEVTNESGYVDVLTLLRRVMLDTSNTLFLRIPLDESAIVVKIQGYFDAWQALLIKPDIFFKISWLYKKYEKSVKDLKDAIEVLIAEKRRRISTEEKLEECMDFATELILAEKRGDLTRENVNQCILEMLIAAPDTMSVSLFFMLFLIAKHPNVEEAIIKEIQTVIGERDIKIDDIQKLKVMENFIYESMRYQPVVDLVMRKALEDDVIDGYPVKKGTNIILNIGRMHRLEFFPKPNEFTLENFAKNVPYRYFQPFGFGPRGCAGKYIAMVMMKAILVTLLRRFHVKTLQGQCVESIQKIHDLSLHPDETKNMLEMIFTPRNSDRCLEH
Briefly: Inhibitory effects against human recombinant aromatase (DBF fluorescence assay). It counts as biochemical. The conditions noted are these: substrate DBF; mean, N = 3. As to the method: Dibenzylfluorescein (DBF) and human CYP19 + P450 reductase SUPERSOMES (human recombinant aromatase) were purchased from BD Biosciences (Heidelberg, Germany) and testosterone from Tokyo Chemical Industry Co., Ltd. (Tokyo, Japan). The other chemicals used in this study were purchased from Wako Pure Chemical Industries, Co., Ltd. (Osaka, Japan).
The experiments were performed according to a previously described method. Briefly, a test sample was dissolved in dimethyl sulfoxide (DMSO), and the solution was diluted with potassium phosphate buffer (50 mM, pH 7.4) containing MgCl2 (0.5 mM) to obtain the test sample solution (concentration of DMSO: 2%). An enzyme/substrate solution in the buffer (20 µL, 1.6 µM DBF, 8 nM human recombinant aromatase) and the test sample solution (20 µL) were mixed in a 96-well half-area black microplate (Greiner Bio-One, Frickenhausen, Germany) at 37 °C for 10 min. The enzymatic reaction was initiated by adding NADPH solution (40 µL, 500 µM) at 37 °C for 30 min. After 30 min of incubation, NaOH (30 µL, 2 mM) was added, and the reaction mixture was incubated at 37 °C for 2 h to induce fluorescent signals (final DMSO concentration, 0.5%; aromatase, 2 nM; and NADPH, 250 µM). Fluorescence was measured using a fluorescence microplate reader (SH-9000, CORONA […] Co., Ltd., Ibaraki, Japan) at an excitation wavelength of 435 nm and emission wavelength of 535 nm. Experiments were performed in triplicate, and the IC50 values were determined graphically.

Experiment [2] deals with T1, human recombinant aromatase. Briefly: Kinetic analysis of inhibitory activity against human recombinant aromatase using Lineweaver-Burk plots (testosterone substrate, estradiol EIA). The class given is biochemical. Particulars: for Ki: testosterone 0.4–4 µM as substrate, secondary plot of Lineweaver–Burk, N = 3; for mode of inhibition of aromatase: Lineweaver–Burk plots. An excerpt: In the assay system, we fixed the enzyme concentration, changed the substrate concentration, and obtained the kinetic parameters of the enzyme-catalyzed reaction using Lineweaver–Burk double reciprocal plot 1/[V] vs. 1/[S]. The inhibition constant Ki indicates the potency of an inhibitor and equals the concentration required to produce half-maximal inhibition. The Ki value was obtained from the intersection of the secondary plot with the x-axis (apparent Km/Vmax vs. inhibitor).
Experiments were performed using a previously described protocol, modified by using various concentrations of testosterone (0.4–4 µM) as substrates instead of DBF and the plate was heated at 37 °C for 15 min. After the reaction, the enzyme was inactivated by heating in a boiling water bath for 2 min. An estradiol EIA kit (Oxford Biomedical Research, Inc., Oxford, MI, USA) was used to develop an estradiol standard curve to determine the concentration of estradiol produced and to correlate the concentration of estradiol with the reaction velocity. The mode of inhibition was analyzed using the Lineweaver–Burk plot of the inverse of the reaction velocity of estradiol plotted on the vertical axis and the inverse of the final concentration of the substrate on the horizontal axis, with and without the test substance (Figure S27).

The results in this text go back to article PMC9570088, “Phytochemicals with Chemopreventive Activity Obtained from the Thai Medicinal Plant Mammea siamensis (Miq.) T. Anders.: Isolation and Structure Determination of New Prenylcoumarins with Inhibitory Activity against Aromatase” (International Journal of Molecular Sciences, 2022).

Molecules are shown by their SMILES. “Also recorded” adds a separate entry of the source.

As usually defined, the IC50 is the concentration at which inhibition is half-maximal. Broadly, the Ki is the dissociation constant of the complex between target and ligand, obtained from inhibition or displacement. Turning to `CC[C@H](O)c1cc(=O)oc2c(C(=O)CC(C)C)c(O)c3c(c12)OC(C)(CCC=C(C)C)C=C3` (stereo partly shown) [compound 10, Mammeasin E], the half-maximal inhibitory concentration (IC50) in experiment [1] turned out to be 11.1 µM. The Ki in experiment [2] came to 7.1 µM.
For `CCCC(=O)c1c(O)c(CC=C(C)C)c(O)c2c(C(CC)OC(C)=O)cc(=O)oc12` (stereo not shown) [compound 38, Mammea E/BC], in that order: 23.2 µM and 11.3 µM.
Taken in the same sequence, the figures for `CCC(C)C(=O)c1c(O)c2c(c3c([C@@H](O)CC)cc(=O)oc13)OC(C)(CCC=C(C)C)C=C2` (stereo partly shown) [compound 11, Mammeasin F] were 12.4 µM and 12.3 µM.
Taken in the same sequence, the figures for `CCCC(=O)c1c(O)c2c(c3c([C@@H](O)CC)cc(=O)oc13)OC(C)(CCC=C(C)C)C=C2` (stereo partly shown) [compound 23, Kayaessamin I] were 9.3 µM and 14.7 µM.
Consider `C=C(C)c1cc2c(o1)c(C(=O)CCC)c(O)c1c(-c3ccccc3)cc(=O)oc12` [compound 4, mammeasin N], for which the IC50 in experiment [1] amounted to 12 µM. Further, in experiment [2], the “mode of inhibition of aromatase” value is “competitive inhibition; also recorded: competitive inhibitors” and the Ki was determined as 2.6 µM.
Taken in the same sequence, the figures for `C=C(C)c1cc2c(o1)c(C(=O)CC(C)C)c(O)c1c(-c3ccccc3)cc(=O)oc12` [compound 5, mammeasin O] were 9.1 µM, “competitively inhibit; also recorded: competitive inhibition; also recorded: competitive inhibitors” and 2.3 µM.
Consider `CC(C)CC(=O)c1c2c(c3oc(=O)cc(-c4ccccc4)c3c1O)CC(C(C)(C)O)O2` (stereo not shown) [compound 39, Mammea A/AA cyclo F], for which the IC50 in experiment [1] is 9.2 µM. Further, in experiment [2], the Ki came to 4.3 µM.
